The values below come from ChEMBL document CHEMBL4387741, “Optimization of novel reversible Bruton's tyrosine kinase inhibitors identified using Tethering-fragment-based screens” (Bioorg Med Chem, 2019).

The structures appear in SMILES notation.

Test [1] has as its target RAC-gamma serine/threonine-protein kinase (Homo sapiens) (UniProt Q9Y243). As to the kind of experiment: Inhibition of wild-type human partial length AKT3 expressed in bacterial expression system at 1 uM by Kinomescan method relative to control.
For test [2], the target named is Cyclin-dependent kinase 3 (Homo sapiens) (UniProt Q00526). As to the kind of experiment: Inhibition of wild-type human full length CDK3 (M1 to H305 residues) expressed in bacterial expression system at 1 uM by Kinomescan method relative to control.
The target of test [3] is Ephrin type-B receptor 4 (Homo sapiens) (UniProt P54760). As to the kind of experiment: Inhibition of wild-type human partial length EPHB4 (H585 to G892 residues) expressed in bacterial expression system at 1 uM by Kinomescan method relative to control.
Test [4] concerns the target Mast/stem cell growth factor receptor Kit (Homo sapiens) (UniProt P10721). As to the kind of experiment: Inhibition of wild-type human partial length KIT (I571 to D952 residues) expressed in bacterial expression system at 1 uM by Kinomescan method relative to control.
Test [5] has as its target Microtubule-associated serine/threonine-protein kinase 1 (Homo sapiens) (UniProt Q9Y2H9). As to the kind of experiment: Inhibition of wild-type human partial length MAST1 (S346 to V730 residues) expressed in mammalian expression system at 1 uM by Kinomescan method relative to control.
Test [6] has as its target Macrophage-stimulating protein receptor (Homo sapiens) (UniProt Q04912). As to the kind of experiment: Inhibition of wild-type human partial length MST1R (I1057 to L1363 residues) expressed in bacterial expression system at 1 uM by Kinomescan method relative to control.
Test [7] addresses Protein kinase C delta type (Homo sapiens) (UniProt Q05655). As to the kind of experiment: Inhibition of wild-type human partial length PRKCD (Q328 to D676 residues) expressed in bacterial expression system at 1 uM by Kinomescan method relative to control.
The target in test [8] is Serine/threonine-protein kinase SBK1 (Homo sapiens) (UniProt Q52WX2). As to the kind of experiment: Inhibition of wild-type human partial length SBK1 (P23 to P348 residues) expressed in mammalian expression system at 1 uM by Kinomescan method relative to control.
In test [9] the target is Non-receptor tyrosine-protein kinase TNK1 (Homo sapiens) (UniProt Q13470). As to the kind of experiment: Inhibition of wild-type human full length TNK1 (M1 to P661 residues) expressed in bacterial expression system at 1 uM by Kinomescan method relative to control.
Test [10] addresses Serine/threonine-protein kinase 32A (Homo sapiens) (UniProt Q8WU08). As to the kind of experiment: Inhibition of wild-type human full length YANK1 (M1 to L396 residues) expressed in mammalian expression system at 1 uM by Kinomescan method relative to control.
Test [11] has as its target Serine/threonine-protein kinase BRSK1 (Homo sapiens) (UniProt Q8TDC3). As to the kind of experiment: Inhibition of wild-type human partial length BRSK1 (M1 to E754 residues) expressed in bacterial expression system at 10 uM by Kinomescan method relative to control.
In test [12] the target is Ephrin type-A receptor 4 (Homo sapiens) (UniProt P54764). As to the kind of experiment: Inhibition of wild-type human partial length EPHA4 (T601 to R897 residues) expressed in bacterial expression system at 10 uM by Kinomescan method relative to control.
The target in test [13] is Ephrin type-A receptor 5 (Homo sapiens) (UniProt P54756). As to the kind of experiment: Inhibition of wild-type human partial length EPHA5 (T627 to V930 residues) expressed in bacterial expression system at 10 uM by Kinomescan method relative to control.
Test [14] has as its target Homeodomain-interacting protein kinase 2 (Homo sapiens) (UniProt Q9H2X6). As to the kind of experiment: Inhibition of wild-type human partial length HIPK2 (M153 to S564 residues) expressed in mammalian expression system at 10 uM by Kinomescan method relative to control.
For test [15], the target named is Tyrosine-protein kinase JAK1 (Homo sapiens) (UniProt P23458). As to the kind of experiment: Inhibition of wild-type human partial length JAK1 JH2 pseudokinase domain (R537 to D855 residues) expressed in mammalian expression system at 10 uM by Kinomescan method relative to control.
The target of test [16] is Serine/threonine-protein kinase LATS1 (Homo sapiens) (UniProt O95835). As to the kind of experiment: Inhibition of wild-type human partial length LATS1 (Q678 to V1130 residues) expressed in bacterial expression system at 10 uM by Kinomescan method relative to control.
Test [17] concerns Leucine-rich repeat serine/threonine-protein kinase 2 (Homo sapiens), Q5S007 [G2019S]. As to the kind of experiment: Inhibition of human partial length LRRK2 G2019S mutant (H970 to E2527 residues) expressed in mammalian expression system at 10 uM by Kinomescan method relative to control.
In test [18] the target is Mitogen-activated protein kinase kinase kinase kinase 3 (Homo sapiens) (UniProt Q8IVH8). As to the kind of experiment: Inhibition of wild-type human partial length MAP4K3 (M1 to D301 residues) expressed in bacterial expression system at 10 uM by Kinomescan method relative to control.
For test [19], the target named is Serine/threonine-protein kinase Nek3 (Homo sapiens) (UniProt P51956). As to the kind of experiment: Inhibition of wild-type human full length NEK3 (M1 to R506 residues) expressed in mammalian expression system at 10 uM by Kinomescan method relative to control.
The target in test [20] is Mitogen-activated protein kinase 14 (Homo sapiens) (UniProt Q16539). As to the kind of experiment: Inhibition of wild-type human full length p38-alpha (M1 to S360 residues) expressed in bacterial expression system at 10 uM by Kinomescan method relative to control.
In test [21] the target is Cyclin-dependent kinase 17 (Homo sapiens) (UniProt Q00537). As to the kind of experiment: Inhibition of wild-type human full length PCTK2 (M1 to F523 residues) expressed in bacterial expression system at 10 uM by Kinomescan method relative to control.
The target in test [22] is Platelet-derived growth factor receptor beta (Homo sapiens) (UniProt P09619). As to the kind of experiment: Inhibition of wild-type human partial length PDGFRB (V582 to Y1009 residues) expressed in bacterial expression system at 10 uM by Kinomescan method relative to control.
The target in test [23] is Serine/threonine-protein kinase D3 (Homo sapiens) (UniProt O94806). As to the kind of experiment: Inhibition of wild-type human partial length PRKD3 (S543 to E863 residues) expressed in bacterial expression system at 10 uM by Kinomescan method relative to control.
Test [24] addresses Ribosomal protein S6 kinase alpha-1 (Homo sapiens) (UniProt Q15418). As to the kind of experiment: Inhibition of wild-type human partial length C-terminal RSK1 kinase domain 2 (P360 to L681 residues) expressed in bacterial expression system at 10 uM by Kinomescan method relative to control.
Test [25] has as its target Serine/threonine-protein kinase SIK1 (Homo sapiens) (UniProt P57059). As to the kind of experiment: Inhibition of wild-type human partial length SIK (M1 to Y304 residues) expressed in bacterial expression system at 10 uM by Kinomescan method relative to control.
The target in test [26] is Serine/threonine-protein kinase 36 (Homo sapiens) (UniProt Q9NRP7). As to the kind of experiment: Inhibition of wild-type human partial length STK36 (M1 to T271 residues) expressed in bacterial expression system at 10 uM by Kinomescan method relative to control.
Test [27] deals with Non-receptor tyrosine-protein kinase TYK2 (Homo sapiens) (UniProt P29597). As to the kind of experiment: Inhibition of wild-type human partial length TYK2 JH1 catalytic domain (V877 to C1187 residues) expressed in mammalian expression system at 10 uM by Kinomescan method relative to control.
Sequence of Non-receptor tyrosine-protein kinase TYK2 (Homo sapiens) (P29597 whole entry, the tested form may be a part): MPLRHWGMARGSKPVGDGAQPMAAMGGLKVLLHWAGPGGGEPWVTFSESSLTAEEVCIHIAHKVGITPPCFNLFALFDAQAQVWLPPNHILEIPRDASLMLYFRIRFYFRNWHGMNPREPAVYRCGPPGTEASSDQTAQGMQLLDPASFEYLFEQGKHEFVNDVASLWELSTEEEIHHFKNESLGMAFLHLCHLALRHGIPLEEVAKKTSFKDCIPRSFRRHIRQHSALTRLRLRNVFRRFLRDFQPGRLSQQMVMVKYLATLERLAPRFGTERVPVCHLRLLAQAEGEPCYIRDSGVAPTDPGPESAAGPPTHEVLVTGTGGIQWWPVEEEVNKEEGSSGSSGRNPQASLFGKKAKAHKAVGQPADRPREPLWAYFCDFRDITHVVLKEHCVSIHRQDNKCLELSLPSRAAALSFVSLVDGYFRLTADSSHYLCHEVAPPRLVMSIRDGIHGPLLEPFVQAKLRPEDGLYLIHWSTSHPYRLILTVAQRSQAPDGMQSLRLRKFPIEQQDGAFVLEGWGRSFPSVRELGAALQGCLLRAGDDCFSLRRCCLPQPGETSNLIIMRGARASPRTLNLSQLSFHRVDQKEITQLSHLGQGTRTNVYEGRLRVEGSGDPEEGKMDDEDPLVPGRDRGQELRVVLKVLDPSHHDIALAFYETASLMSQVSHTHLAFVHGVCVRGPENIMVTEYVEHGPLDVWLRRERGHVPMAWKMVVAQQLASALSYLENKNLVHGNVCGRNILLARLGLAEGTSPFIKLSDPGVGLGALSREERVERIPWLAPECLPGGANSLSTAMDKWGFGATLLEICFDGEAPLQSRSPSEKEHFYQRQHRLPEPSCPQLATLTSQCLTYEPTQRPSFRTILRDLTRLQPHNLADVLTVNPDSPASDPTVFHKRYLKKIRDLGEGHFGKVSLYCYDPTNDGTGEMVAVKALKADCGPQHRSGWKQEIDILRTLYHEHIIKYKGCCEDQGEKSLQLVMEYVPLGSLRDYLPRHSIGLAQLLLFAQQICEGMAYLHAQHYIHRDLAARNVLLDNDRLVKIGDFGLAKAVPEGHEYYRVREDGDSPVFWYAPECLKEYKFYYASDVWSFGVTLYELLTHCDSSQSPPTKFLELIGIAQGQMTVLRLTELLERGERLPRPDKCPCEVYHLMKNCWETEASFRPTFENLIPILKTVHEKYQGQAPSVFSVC

Sequence of Serine/threonine-protein kinase 36 (Homo sapiens) (Q9NRP7 whole entry, the tested form may be a part): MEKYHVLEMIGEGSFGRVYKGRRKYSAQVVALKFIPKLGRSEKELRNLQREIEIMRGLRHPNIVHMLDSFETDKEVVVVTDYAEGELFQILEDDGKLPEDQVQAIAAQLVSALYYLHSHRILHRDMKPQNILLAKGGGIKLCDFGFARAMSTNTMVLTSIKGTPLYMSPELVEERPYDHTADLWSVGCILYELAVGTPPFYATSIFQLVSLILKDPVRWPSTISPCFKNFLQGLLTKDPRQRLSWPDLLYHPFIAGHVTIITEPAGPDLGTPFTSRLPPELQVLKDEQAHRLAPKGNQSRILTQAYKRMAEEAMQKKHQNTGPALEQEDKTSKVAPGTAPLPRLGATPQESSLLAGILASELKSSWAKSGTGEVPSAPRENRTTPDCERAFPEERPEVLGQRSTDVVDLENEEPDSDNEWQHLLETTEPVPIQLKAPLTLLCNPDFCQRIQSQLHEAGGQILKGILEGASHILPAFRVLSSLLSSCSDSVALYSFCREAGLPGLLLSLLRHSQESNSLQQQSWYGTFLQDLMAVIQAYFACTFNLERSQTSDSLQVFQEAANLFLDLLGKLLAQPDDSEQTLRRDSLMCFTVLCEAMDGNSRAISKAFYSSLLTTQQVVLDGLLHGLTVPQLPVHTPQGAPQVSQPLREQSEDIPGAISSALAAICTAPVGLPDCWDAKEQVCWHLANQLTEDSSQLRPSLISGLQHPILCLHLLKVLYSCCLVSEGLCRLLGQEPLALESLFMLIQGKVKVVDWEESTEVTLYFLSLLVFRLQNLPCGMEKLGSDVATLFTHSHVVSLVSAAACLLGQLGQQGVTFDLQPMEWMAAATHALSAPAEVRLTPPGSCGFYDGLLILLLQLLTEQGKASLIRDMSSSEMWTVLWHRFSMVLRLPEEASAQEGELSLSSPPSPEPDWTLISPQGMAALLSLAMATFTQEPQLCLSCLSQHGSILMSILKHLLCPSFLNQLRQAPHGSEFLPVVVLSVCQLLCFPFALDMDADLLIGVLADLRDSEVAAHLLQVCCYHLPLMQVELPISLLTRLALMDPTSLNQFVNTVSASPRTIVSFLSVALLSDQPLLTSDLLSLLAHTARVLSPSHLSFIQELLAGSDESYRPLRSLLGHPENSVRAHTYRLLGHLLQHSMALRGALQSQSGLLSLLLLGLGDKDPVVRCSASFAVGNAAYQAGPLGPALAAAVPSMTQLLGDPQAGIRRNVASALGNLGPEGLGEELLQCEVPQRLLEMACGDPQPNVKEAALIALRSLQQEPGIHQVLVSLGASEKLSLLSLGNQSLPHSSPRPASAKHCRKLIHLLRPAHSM
Sequence of Leucine-rich repeat serine/threonine-protein kinase 2 (Homo sapiens), Q5S007 [G2019S] (Q5S007 whole entry G2019S, the tested form may be a part): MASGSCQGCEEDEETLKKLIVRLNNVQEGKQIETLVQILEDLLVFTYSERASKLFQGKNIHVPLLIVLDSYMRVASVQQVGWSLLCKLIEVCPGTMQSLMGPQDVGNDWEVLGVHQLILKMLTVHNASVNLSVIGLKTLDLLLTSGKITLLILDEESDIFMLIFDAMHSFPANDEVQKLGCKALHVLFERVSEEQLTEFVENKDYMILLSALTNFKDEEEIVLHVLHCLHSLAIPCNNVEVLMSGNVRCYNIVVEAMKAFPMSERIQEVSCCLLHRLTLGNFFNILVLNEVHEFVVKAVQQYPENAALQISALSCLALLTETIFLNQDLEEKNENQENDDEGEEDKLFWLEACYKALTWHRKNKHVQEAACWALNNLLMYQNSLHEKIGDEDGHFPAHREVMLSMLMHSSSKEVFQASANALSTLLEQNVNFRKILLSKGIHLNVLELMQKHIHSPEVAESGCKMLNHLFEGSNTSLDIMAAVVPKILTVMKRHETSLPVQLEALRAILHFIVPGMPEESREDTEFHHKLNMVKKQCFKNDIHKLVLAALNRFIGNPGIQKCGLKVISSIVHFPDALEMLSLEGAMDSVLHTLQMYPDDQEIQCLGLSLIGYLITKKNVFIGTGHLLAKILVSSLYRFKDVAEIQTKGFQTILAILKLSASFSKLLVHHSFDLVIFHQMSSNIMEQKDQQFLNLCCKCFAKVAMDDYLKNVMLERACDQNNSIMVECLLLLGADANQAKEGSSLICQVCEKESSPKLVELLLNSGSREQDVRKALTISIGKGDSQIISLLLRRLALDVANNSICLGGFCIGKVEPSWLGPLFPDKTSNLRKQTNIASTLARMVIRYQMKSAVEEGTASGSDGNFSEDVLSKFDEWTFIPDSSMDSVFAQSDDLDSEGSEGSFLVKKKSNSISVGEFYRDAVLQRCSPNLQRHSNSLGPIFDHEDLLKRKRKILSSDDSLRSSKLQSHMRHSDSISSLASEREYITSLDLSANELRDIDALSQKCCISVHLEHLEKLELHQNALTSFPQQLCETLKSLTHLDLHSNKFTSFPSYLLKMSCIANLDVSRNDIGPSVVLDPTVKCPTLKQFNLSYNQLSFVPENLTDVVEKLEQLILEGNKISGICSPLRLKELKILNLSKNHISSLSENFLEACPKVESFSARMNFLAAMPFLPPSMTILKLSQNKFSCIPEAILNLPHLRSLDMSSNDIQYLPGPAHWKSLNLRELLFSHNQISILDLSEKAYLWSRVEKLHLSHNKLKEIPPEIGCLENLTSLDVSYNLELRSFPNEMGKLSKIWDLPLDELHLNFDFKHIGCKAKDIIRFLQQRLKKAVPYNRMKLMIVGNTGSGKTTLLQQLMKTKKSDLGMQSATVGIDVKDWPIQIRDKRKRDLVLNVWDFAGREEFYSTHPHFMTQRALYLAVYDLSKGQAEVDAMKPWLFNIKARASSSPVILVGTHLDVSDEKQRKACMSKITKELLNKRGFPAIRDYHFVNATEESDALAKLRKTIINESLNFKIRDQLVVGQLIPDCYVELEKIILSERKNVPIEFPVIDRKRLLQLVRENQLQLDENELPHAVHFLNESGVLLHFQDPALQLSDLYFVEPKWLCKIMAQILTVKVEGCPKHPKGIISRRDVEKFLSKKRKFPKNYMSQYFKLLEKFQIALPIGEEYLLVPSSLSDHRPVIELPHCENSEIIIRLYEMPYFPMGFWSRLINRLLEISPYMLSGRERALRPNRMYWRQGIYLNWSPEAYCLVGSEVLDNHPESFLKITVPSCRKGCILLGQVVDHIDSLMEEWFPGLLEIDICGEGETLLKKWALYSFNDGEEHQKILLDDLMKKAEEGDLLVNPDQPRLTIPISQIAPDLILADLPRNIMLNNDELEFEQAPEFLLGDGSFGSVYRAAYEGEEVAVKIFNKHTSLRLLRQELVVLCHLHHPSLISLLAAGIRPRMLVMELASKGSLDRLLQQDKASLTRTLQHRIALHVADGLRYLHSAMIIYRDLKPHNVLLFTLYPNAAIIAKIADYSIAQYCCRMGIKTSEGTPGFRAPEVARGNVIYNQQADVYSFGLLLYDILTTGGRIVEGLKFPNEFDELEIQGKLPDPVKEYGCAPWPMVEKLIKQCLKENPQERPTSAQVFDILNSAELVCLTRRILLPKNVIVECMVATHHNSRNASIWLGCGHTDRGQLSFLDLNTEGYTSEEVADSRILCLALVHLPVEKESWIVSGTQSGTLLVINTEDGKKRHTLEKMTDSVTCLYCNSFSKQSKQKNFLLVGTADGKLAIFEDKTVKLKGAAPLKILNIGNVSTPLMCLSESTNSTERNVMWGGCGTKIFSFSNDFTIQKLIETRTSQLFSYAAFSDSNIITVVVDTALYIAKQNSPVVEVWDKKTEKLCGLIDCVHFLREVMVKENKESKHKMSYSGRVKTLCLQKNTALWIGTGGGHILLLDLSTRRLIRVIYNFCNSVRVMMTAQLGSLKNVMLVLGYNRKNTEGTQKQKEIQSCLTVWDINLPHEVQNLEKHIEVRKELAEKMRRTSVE

On to `O=C(Nc1cccc([C@@H]2CN(c3ncnc4[nH]ccc34)CCN2CCO)c1)Nc1c(F)cccc1N1CCCC1`, for which the inhibition is 100% in test [1]; 88% in [2]; 95% in test [3]; 73% in test [4]; 93% in [5]; 100% in test [6]. Moreover, the inhibition in test [7] was 85%; in test [8], 69%; in test [9], 65%; in test [10] it was 100%.
Consider `O=C(Nc1cccc([C@H]2CCCN(c3ncnc4[nH]ccc34)C2)c1)Nc1ccccc1N1CCCC1`, for which the inhibition in test [11] worked out at 95%; in test [12], 98%; in test [13] it was 97%; in [14], 64%; in test [15] it was 61%; in [16], 14%. Also, the inhibition stood at 63% in test [17]; 47% in test [18]; 59% in test [19]; 100% in test [20]; 97% in test [21]; 0.1% in test [22]. For the same compound, the inhibition in [23] was 100%; in [24], 60%; in test [25], 48%; in test [26], 90%; in [27] it was 0.6%.
